# Assay results reported in PMC6823370, “A novel nucleoside rescue metabolic pathway may be responsible for therapeutic effect of orally administered cordycepin” (Scientific Reports, 2019).
# Like-named read-outs stand apart in the source and are kept apart here.
# Legend:
# [1] = Plasma protein binding, ultrafiltration, rat plasma; format: in vitro ADME; conditions: read-out: fraction unbound (Fub) in plasma
# Description: Cordycepin was spiked into the plasma to give concentrations of 100, 500, 1000 and 5000 ng/mL, and the samples (300 µL) were incubated in the shaking incubator at 250 rpm and 37 °C for 1 h. Following incubation, 100 µL was withdrawn and analysed for Ct. The remaining sample was transferred to a filter device (Amicon Ultra-0.5 Centrifugal Filter Units, MWCO 3000, Merck Millipore, Cork, Ireland) and was centrifuged at 14,000 g for 10 min at room temperature. Filtrate was collected and analysed for Cf. The fraction unbound in plasma (Fub) was calculated by the equation: Cf/Ct × 100 = Fub. Non-specific binding of cordycepin to the filter device was tested at the same concentration range using phosphate buffered saline (PBS) instead of plasma. Experiments were conducted in quadruplicates.
# Samples from studies of plasma stability, protein binding, biorelevant solubility and liver microsomal stability were subjected to liquid-liquid extraction and HPLC-UV analysis. To 100 µL of sample, internal standard (2′-deoxyadenosine) was spiked at 10 µg/mL and 300 µL of 0.1 M NaOH was added. Extraction solvent (3 mL) of ethyl acetate-isopropyl alcohol (85:15, v/v) was added and vortex-mixed for 10 min. Samples were then centrifuged at 1160 g for 5 min and the supernatant was transferred and dried under N2 gas. […]
# [2] = Liver microsomal stability, rat liver microsomes; format: in vitro ADME; conditions: for Fh, parallel-tube model / Fh, well-stirred model / CLint scaled at 1 µM: rat liver microsome, pentostatin −; for CLint scaled at 1 µM: rat, liver microsomes
# Description: (§1) Human and rat liver microsomes were used in the experiment following previously reported methods[49],[50]. Microsomes were used at 0.5 mg protein/mL and cordycepin was tested at 1 µM. […] The reaction mixture was incubated in the shaking incubator at 37 °C for 30 min with sampling every 10 min. The results of intrinsic clearance and the fraction that escapes hepatic metabolism (by both well-stirred and parallel-tube models) were calculated by previously reported equations and physiological parameters[50]–[52]. The experiments were performed in triplicates.
# (§2) Samples from studies of plasma stability, protein binding, biorelevant solubility and liver microsomal stability were subjected to liquid-liquid extraction and HPLC-UV analysis. To 100 µL of sample, internal standard (2′-deoxyadenosine) was spiked at 10 µg/mL and 300 µL of 0.1 M NaOH was added. Extraction solvent (3 mL) of ethyl acetate-isopropyl alcohol (85:15, v/v) was added and vortex-mixed for 10 min. Samples were then centrifuged at 1160 g for 5 min and the supernatant was transferred and dried under N2 gas. Dried samples were reconstituted with 100 uL of deionised distilled water (DDW) and 40 µL was injected into the HPLC-UV. The HPLC-UV setup was adopted from a validated method[22] with addition of a gradient scheme to elute the impurities from samples. Waters Alliance 2695 module with Waters 996 PDA detector was used for the HPLC-UV system with Capcell Pak C18 3 µm, 4.6 × 150 mm as the stationary phase. Mobile phase was a mixture of acetonitrile (A) and DDW (B) at flow rate 0.8 mL/min with a gradient scheme of the following: 0–9 min, B 94%; 9–14 min, B decreased to 20%; 14–24 min, B 20%; 24–26 min, B increased to 94%; and 26–35 min, B 94%. Calibration curves were constructed at a range of 10 – 20000 ng/mL and chromatograms were obtained at 259 nm of wavelength.
# [3] = Biorelevant solubility (FaSSGF, FaSSIF, FeSSIF); format: physicochemical; conditions: thermodynamic from solid, compared with reported water solubility
# Description: The three biorelevant fluids of fasted state simulated gastric fluid (FaSSGF, pH 1.6), fasted state simulated intestinal fluid (FaSSIF, pH 6.5) and fed state simulated intestinal fluid (FeSSIF, pH 5.0) were prepared according to previously reported compositions. The test mixtures containing biorelevant fluids and excessive amount of cordycepin were shaken at 250 rpm, 37 °C for 2 h in the shaking incubator. The mixtures were then filtered using Costar Spin-X Centrifuge Tubes (Fisher Scientific, Loughborough, UK) at 2400 g for 5 min. The filtrate was subjected to analysis by HPLC-UV. The experiments were conducted in quadruplicates.
# as §2
# Caco-2 cells = test: Caco-2 permeability; format: in vitro ADME
# Description: (§3) Caco-2 permeability assays were conducted following previously reported methods with 21-day maintenance on the Corning 24-well Transwell® (Fisher Scientific, Loughborough, UK)[48]. […] Both directions of apical-to-basolateral and basolateral-to-apical were tested. […] The experiments were conducted in triplicates.
# (§4) Samples from Caco-2 permeability, in vitro determination of CordyTP formation and in vivo experiments were subjected to protein precipitation followed by LC-MS/MS analysis. To 50 µL of rat plasma sample, 150 µL of internal standard solution (1.67 µg/mL 2-chloroadenosine in methanol) was added. The samples were then vortex-mixed for 10 s and were centrifuged for 3 min at 17949 g. Supernatant (20 µL) was collected and diluted 10-fold with DDW before injection into the LC-MS/MS for analysis of cordycepin and 3′-deoxyinosine. For analysis of CordyTP, the supernatant was filtered using filter tubes mentioned above and injected without dilution. Tissue samples were homogenised using Bullet Blender Gold (Next Advance, Inc., Troy, NY) in methanol (1:3 w/v) and centrifuged for 3 min at 17949 g. The supernatant was filtered and injected for analysis of CordyTP or diluted 10-fold with DDW for analysis of cordycepin and 3′-deoxyinosine. The LC-MS/MS system was a API4000 QTrap (AB Sciex, Warrington, UK) equipped with HPLC setup of SCL10Avp controller, LC10ADvp pump and SILHTC autosampler (Shimadzu, Milton Keynes, UK). Three different methods were utilised for each compound and multiple reaction monitoring parameters of the MS/MS conditions are shown in Table 1. The HPLC conditions including stationary phases and specific mass spectrometry parameters are shown in Supplementary Information 2. The LC-MS/MS method for cordycepin was fully validated in terms of accuracy, precision, sensitivity, selectivity, linearity and sample storage stability in accordance with the Guidance for Industry, Bioanalytical Method Validation, (2018) published by the US FDA (refer to Supplementary Information 3 for validation procedures and results)[53].
# Caco-2 permeability = format: in vitro ADME; conditions: human, Caco-2; read-out: apparent permeability coefficient (Papp), A to B
# Description: as §3, §4
# [4] = Plasma stability of cordycepin in rat plasma; format: in vitro ADME; conditions: read-out: ex vivo stability half-life (t1/2) in plasma
# Description: Stability of cordycepin in plasma was tested using human and rat plasma by following a previously reported method with minor modifications. Cordycepin was spiked into the plasma at 10 µM and the samples were incubated in a shaking incubator (Thermo Scientific MaxQ4000, Waltham, MA, USA) at 37 °C and shaken at 250 rpm. Samples (100 µL) were withdrawn at predetermined time points. […] The experiments were performed in triplicates.
# as §2, with “Mobile phase was a mixture of acetonitrile (A) and DDW (B) at flow rate 0.8 mL/min with a gradient scheme of the following: 0–9 min, B 94%; 9–14 min, B decreased to 20%; 14–24 min, B 20%; 24–26 min, B increased to 94%; and 26–35 min, B 94%. Calibration curves were constructed at a range of 10 – 20000 ng/mL and chromatograms were obtained at 259 nm of wavelength.” left out
# [5] = Liver microsomal stability, human liver microsomes; format: in vitro ADME; conditions: human liver microsome, pentostatin −; for CLint scaled at 1 µM: human, liver microsomes
# Description: as §1, §2
# [6] = text summary over rat and human liver microsomes, without pentostatin
structure (smiles),measurement,setting,value
"Nc1ncnc2c1ncn2[C@@H]1O[C@H](CO)C[C@H]1O [cordycepin, 3′-deoxyadenosine]",fraction unbound at 1 h,[1],> 0.8
same,"Fh, parallel-tube model",[2]; NADPH +,0.1 ± 0.0%
same,"Fh, well-stirred model",[2]; NADPH +,12.4 ± 0.9%
same,"Fh, parallel-tube model",[2]; NADPH −,0.1 ± 0.1%
same,"Fh, well-stirred model",[2]; NADPH −,12.5 ± 1.5%
same,CLint scaled at 1 µM,[2]; NADPH +,392 ± 31.3 mL/min/kg
same,CLint scaled at 1 µM,[2]; NADPH −,390 ± 51.4 mL/min/kg
same,"Fh calculated from CLint, parallel-tube model",[2]; [6],~0%
same,"Fh calculated from CLint, well-stirred model",[2]; [6],10–13%
same,solubility at 2 h,"[3]; FaSSGF, fassgf or other biorelevant, pH 1.6, 37 °C, read-out: solubility in FaSSGF",> 5000 µg/mL
same,solubility at 2 h,"[3]; FaSSIF, pH 6.5, 37 °C, read-out: solubility in FaSSIF",> 5000 µg/mL
same,solubility at 2 h,"[3]; FeSSIF, pH 5.0, 37 °C, read-out: solubility in FeSSIF",> 5000 µg/mL
same,cordycepin remaining in donor chamber at 120 min,Caco-2 cells; applied to apical side with pentostatin,remained stable
same,cordycepin remaining in donor chamber at 120 min,Caco-2 cells; applied to apical side without pentostatin,significantly degraded
same,cordycepin remaining in donor chamber at 120 min,Caco-2 cells; applied to basolateral side without pentostatin,remained stable
same,permeation of cordycepin,"Caco-2 cells; cordycepin 200 µM without pentostatin, A to B and B to A",not detected
same,"Papp A→B at 120 min, 200 µM",Caco-2 permeability,0.11 ± 0.01 ×10⁻⁶ cm/s
same,half-life at 10 µM,[4],25 ± 0.7 min
same,"Fh, parallel-tube model",[5]; NADPH +,0.0 ± 0.0%
same,"Fh, well-stirred model",[5]; NADPH +,10.3 ± 0.7%
same,"Fh, parallel-tube model",[5]; NADPH −,0.0 ± 0.0%
same,"Fh, well-stirred model",[5]; NADPH −,10.4 ± 0.3%
same,CLint scaled at 1 µM,[5]; NADPH +,181 ± 13.9 mL/min/kg
same,CLint scaled at 1 µM,[5]; NADPH −,179 ± 5.3 mL/min/kg
